Assay results published in ChEMBL document CHEMBL1201862, “PubChem BioAssay data set” (2004).
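Interpolation was linear, between the two tested concentrations surrounding the appropriate level; five concentrations were tested over 48 hours in 96-well plates. GI50 is the concentration that inhibits growth by half.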 Active and inactive are the calls of the source. No stated cut-off is given here; in the data, active = GI50 up to about 1.1 µM and inactive = higher.

Columns and labels:
Test in all cases: NCI anticancer screen, dose series, 48 h
[1] = test system: Malme-3M
[2] = test system: SNB-78
[3] = test system: RPMI-8226
[4] = test system: SF-539
[5] = test system: SK-MEL-28
[6] = test system: OVCAR-4
[7] = test system: SF-268
[8] = test system: OVCAR-8
[9] = test system: IGROV-1
[10] = test system: HCT-15
[11] = test system: UACC-62
[12] = test system: HT-29
[13] = test system: RXF 393
[14] = test system: LOX IMVI
[15] = test system: MOLT-4
[16] = test system: SF-295
[17] = test system: NCI-H460
[18] = test system: KM-20L2
[19] = test system: DLD-1
[20] = test system: DMS-114
[21] = test system: UACC-257
[22] = test system: NCI-H226
[23] = test system: HCC 2998
[24] = test system: DMS-273
[25] = test system: ACHN
[26] = test system: HOP-62
[27] = test system: HCT-116
[28] = test system: SK-MEL-5
[29] = test system: UO-31
[30] = test system: KM12
[31] = test system: SNB-75
[32] = test system: M14
[33] = test system: LXFL 529
[34] = test system: U-251
[35] = test system: SN12C
[36] = test system: CCRF-CEM
[37] = test system: 786-0
[38] = test system: SK-MEL-2
[39] = test system: HOP-18
[40] = test system: SK-OV-3
[41] = test system: TK-10
[42] = test system: OVCAR-3
[43] = test system: NCI-H522
[44] = test system: M19-MEL
[45] = test system: NCI-H23
[46] = test system: K562
[47] = test system: OVCAR-5
[48] = test system: COLO 205
[49] = test system: A549
[50] = test system: SNB-19
[51] = test system: CAKI-1
[52] = test system: XF498
[53] = test system: EKVX
[54] = test system: SW-620
[55] = test system: HL-60
[56] = test system: HOP-92

For `Cc1ccccc1NC(=O)CSc1nnc(Cc2ccccc2)o1`, which GI50 [1] is on record?
Its GI50 is > 100 µM (inactive).

What about the GI50 [2] of the same compound?
Its GI50 is > 100 µM (inactive).

What about the GI50 [3] of the same compound?
The GI50 was > 100 µM (inactive).

And the GI50 [4]?
The GI50 was > 100 µM (inactive).

And the GI50 [5]?
The GI50 was > 100 µM (inactive).

And the GI50 [6]?
Its GI50 is > 100 µM (inactive).

What about the GI50 [7] of the same compound?
Its GI50 is > 100 µM (inactive).

And the GI50 [8]?
The GI50 was > 100 µM (inactive).

What about the GI50 [9] of the same compound?
Its GI50 is > 100 µM (inactive).

What about the GI50 [10] of the same compound?
Its GI50 is greater than 100 µM.

And the GI50 [11]?
Its GI50 is > 100 µM (inactive).

What about the GI50 [12] of the same compound?
The GI50 was > 100 µM (inactive).

What about the GI50 [13] of the same compound?
Its GI50 is > 100 µM (inactive).

And the GI50 [14]?
The GI50 was > 100 µM (inactive).

And the GI50 [15]?
The GI50 was > 100 µM (inactive).

And the GI50 [16]?
The GI50 was > 100 µM (inactive).

What about the GI50 [17] of the same compound?
The GI50 was > 100 µM (inactive).

And the GI50 [18]?
Its GI50 is > 100 µM (inactive).

What about the GI50 [19] of the same compound?
The GI50 was > 100 µM (inactive).

And the GI50 [20]?
Its GI50 is > 100 µM (inactive).

And the GI50 [21]?
Its GI50 is > 100 µM (inactive).

What about the GI50 [22] of the same compound?
The GI50 was > 100 µM (inactive).

And the GI50 [23]?
Its GI50 is > 100 µM (inactive).

And the GI50 [24]?
Its GI50 is > 100 µM (inactive).

What about the GI50 [25] of the same compound?
Its GI50 is > 100 µM (inactive).

What about the GI50 [26] of the same compound?
The GI50 was > 100 µM (inactive).

What about the GI50 [27] of the same compound?
Its GI50 is > 100 µM (inactive).

And the GI50 [28]?
The GI50 was > 100 µM (inactive).

What about the GI50 [29] of the same compound?
Its GI50 is > 100 µM (inactive).

And the GI50 [30]?
Its GI50 is > 100 µM (inactive).

What about the GI50 [31] of the same compound?
The GI50 was > 100 µM (inactive).

And the GI50 [32]?
Its GI50 is > 100 µM (inactive).

What about the GI50 [33] of the same compound?
The GI50 was > 100 µM (inactive).

What about the GI50 [34] of the same compound?
The GI50 was > 100 µM (inactive).

What about the GI50 [35] of the same compound?
Its GI50 is > 100 µM (inactive).

And the GI50 [36]?
The GI50 was > 100 µM (inactive).

And the GI50 [37]?
Its GI50 is > 100 µM (inactive).

And the GI50 [38]?
The GI50 was > 100 µM (inactive).

And the GI50 [39]?
Its GI50 is > 100 µM (inactive).

And the GI50 [40]?
The GI50 was > 100 µM (inactive).

And the GI50 [41]?
Its GI50 is > 100 µM (inactive).

And the GI50 [42]?
Its GI50 is > 100 µM (inactive).

What about the GI50 [43] of the same compound?
Its GI50 is > 100 µM (inactive).

What about the GI50 [44] of the same compound?
Its GI50 is > 100 µM (inactive).

What about the GI50 [45] of the same compound?
The GI50 was > 100 µM (inactive).

What about the GI50 [46] of the same compound?
The GI50 was > 100 µM (inactive).

And the GI50 [47]?
The GI50 was > 100 µM (inactive).

And the GI50 [48]?
Its GI50 is > 100 µM (inactive).

What about the GI50 [49] of the same compound?
Its GI50 is > 100 µM (inactive).

What does the source list for `COc1ccc2c(c1)[n+]([O-])c(C(C)=O)c(C)[n+]2[O-]`?
GI50 [1]: > 100 µM (inactive); GI50 [2]: > 100 µM (inactive); GI50 [3]: > 100 µM (inactive); GI50 [4]: > 100 µM (inactive); GI50 [5]: > 100 µM (inactive); GI50 [6]: > 100 µM (inactive); GI50 [7]: > 100 µM (inactive); GI50 [8]: > 100 µM (inactive); GI50 [9]: > 100 µM (inactive); GI50 [10]: > 100 µM; GI50 [11]: > 100 µM (inactive); GI50 [12]: > 100 µM (inactive); GI50 [13]: > 100 µM (inactive); GI50 [14]: > 100 µM (inactive); GI50 [15]: > 100 µM (inactive); GI50 [50]: > 100 µM (inactive); GI50 [51]: > 100 µM (inactive); GI50 [16]: > 100 µM (inactive); GI50 [17]: > 100 µM (inactive); GI50 [19]: > 100 µM (inactive); GI50 [52]: > 100 µM (inactive); GI50 [20]: > 100 µM (inactive); GI50 [21]: > 100 µM (inactive); GI50 [22]: > 100 µM (inactive); GI50 [23]: > 100 µM (inactive); GI50 [25]: > 100 µM (inactive); GI50 [26]: > 100 µM (inactive); GI50 [53]: > 100 µM (inactive); GI50 [27]: > 100 µM (inactive); GI50 [28]: > 100 µM (inactive); GI50 [29]: > 100 µM (inactive); GI50 [30]: > 100 µM (inactive); GI50 [32]: > 100 µM (inactive); GI50 [33]: > 100 µM (inactive); GI50 [34]: > 100 µM (inactive); GI50 [35]: > 100 µM (inactive); GI50 [36]: > 10 µM (inactive); GI50 [37]: > 100 µM (inactive); GI50 [38]: > 100 µM (inactive); GI50 [39]: > 100 µM (inactive); GI50 [40]: > 100 µM (inactive); GI50 [41]: > 100 µM (inactive); GI50 [42]: > 100 µM (inactive); GI50 [43]: > 100 µM (inactive); GI50 [44]: > 100 µM (inactive); GI50 [45]: > 100 µM (inactive); GI50 [54]: > 100 µM (inactive); GI50 [46]: > 100 µM (inactive); GI50 [47]: > 100 µM (inactive); GI50 [55]: > 100 µM (inactive); GI50 [48]: > 100 µM (inactive); GI50 [56]: > 100 µM (inactive); GI50 [49]: > 100 µM (inactive)
